The results in this text go back to ChEMBL document CHEMBL5241112, “Insights into the recent progress in the medicinal chemistry of pyranopyrimidine analogs” (RSC Med Chem, 2022).

For one assay, the species on record is Capra hircus. The assay is described as follows: Inhibition of goat lens AR at 100 uM incubated for 10 mins in presence of NADPH by spectroscopic analysis.
Assay [1] is described as follows: Antioxidant activity assessed as DPPH radical scavenging activity incubated for 20 mins by spectrophotometric analysis. The assay is classed as functional. More on the design: concentration or dose not given beside the values. Background: The DPPH test is a chemical assay of radical scavenging.
Assay [2] in a line: Antioxidant activity assessed as hydroxyl radical scavenging activity incubated for 5 mins by spectrophotometric analysis. The assay is classed as functional. More on the design: concentration or dose not given beside the values.
Assay [3] deals with Candida albicans. The assay is described as follows: Antifungal activity against Candida albicans assessed as inhibition of fungal growth. The assay is classed as functional.
The subject of assay [4] is Aspergillus niger. The assay is described as follows: Antifungal activity against Aspergillus niger assessed as inhibition of fungal growth. The assay is classed as functional.
For assay [5], the system named is Aspergillus flavus. The assay is described as follows: Antifungal activity against Aspergillus flavus assessed as inhibition of fungal growth. In kind it is functional.
Assay [6] has as its system Staphylococcus aureus. The assay is described as follows: Antibacterial activity against Staphylococcus aureus assessed as bacterial growth inhibition by broth microdilution method. The assay is classed as functional. A general note: Broth dilution looks for growth in wells or tubes with falling amounts of substance.
The test system of assay [7] is Escherichia coli. The assay is described as follows: Antibacterial activity against Escherichia coli assessed as bacterial growth inhibition by broth microdilution method. In kind it is functional.
Assay [8] concerns Klebsiella pneumoniae. The assay is described as follows: Antibacterial activity against Klebsiella pneumoniae assessed as bacterial growth inhibition by broth microdilution method. In kind it is functional.
In assay [9] the test system is Pseudomonas aeruginosa. The assay is described as follows: Antibacterial activity against Pseudomonas aeruginosa assessed as bacterial growth inhibition by broth microdilution method. In kind it is functional.
Assay [10] deals with Aspergillus flavus. The assay is described as follows: Antifungal activity against Aspergillus flavus assessed as fungal growth inhibition by broth microdilution method. The assay is classed as functional.
Assay [11] relates to Candida albicans. The assay is described as follows: Antifungal activity against Candida albicans assessed as fungal growth inhibition by broth microdilution method. In kind it is functional.
The subject of assay [12] is Staphylococcus aureus. The assay is described as follows: Antimicrobial activity against Staphylococcus aureus assessed as diameter of inhibition zone at 1 mg/ml incubated for 48 hrs by agar disk diffusion method. The assay is classed as functional. The following applies: read-out: DIZ. (In agar diffusion tests the substance spreads into inoculated agar from a disc or well.)

Another assay has as its system Bacillus cereus. The assay is described as follows: Antimicrobial activity against Bacillus cereus assessed as diameter of inhibition zone at 1 mg/ml incubated for 48 hrs by agar disk diffusion method. Conditions: read-out: DIZ. The assay is classed as functional.
For assay [13], the system named is Escherichia coli. The assay is described as follows: Antimicrobial activity against Escherichia coli assessed as diameter of inhibition zone at 1 mg/ml incubated for 48 hrs by agar disk diffusion method. The assay is classed as functional. The following applies: read-out: DIZ.
Assay [14] relates to Klebsiella pneumoniae. The assay is described as follows: Antimicrobial activity against Klebsiella pneumoniae assessed as diameter of inhibition zone at 1 mg/ml incubated for 48 hrs by agar disk diffusion method. The assay is classed as functional. Conditions: read-out: DIZ.
For assay [15], the system named is Pseudomonas aeruginosa. The assay is described as follows: Antimicrobial activity against Pseudomonas aeruginosa assessed as diameter of inhibition zone at 1 mg/ml incubated for 48 hrs by agar disk diffusion method. The assay is classed as functional. The following applies: read-out: DIZ.
The subject of assay [16] is Aspergillus niger. The assay is described as follows: Antifungal activity against Aspergillus niger assessed as diameter of inhibition zone at 1 mg/ml incubated for 72 to 91 hrs by agar disk diffusion method. The assay is classed as functional. Conditions: time 72-91 hrs, read-out: DIZ.
Assay [17] concerns Staphylococcus aureus. The assay is described as follows: Antibacterial activity against Staphylococcus aureus MTCC 96 assessed as bacterial growth inhibition incubated for 24 hrs by broth microdilution method. In kind it is functional.
For assay [18], the system named is Staphylococcus aureus. The assay is described as follows: Antibacterial activity against Staphylococcus aureus assessed as diameter of inhibition zone. In kind it is functional.
For a further assay, the system named is Bacillus subtilis. The assay is described as follows: Antibacterial activity against Bacillus subtilis assessed as diameter of inhibition zone. The assay is classed as functional.
Assay [19] relates to Escherichia coli. The assay is described as follows: Antibacterial activity against Escherichia coli assessed as diameter of inhibition zone. The assay is classed as functional.
The test system of a further assay is Salmonella typhimurium. The assay is described as follows: Antibacterial activity against Salmonella typhimurium assessed as diameter of inhibition zone. In kind it is functional, Salmonella enterica subsp. enterica serovar Typhimurium.
The next assay has as its target Urease (Canavalia ensiformis, UniProt P07374). The assay is described as follows: Inhibition of jack bean urease by phenol red method.

pIC50: −log10 of the molar value. In brackets after ≈: the same amount, converted by molar mass.

Sequence of Urease (P07374 whole entry): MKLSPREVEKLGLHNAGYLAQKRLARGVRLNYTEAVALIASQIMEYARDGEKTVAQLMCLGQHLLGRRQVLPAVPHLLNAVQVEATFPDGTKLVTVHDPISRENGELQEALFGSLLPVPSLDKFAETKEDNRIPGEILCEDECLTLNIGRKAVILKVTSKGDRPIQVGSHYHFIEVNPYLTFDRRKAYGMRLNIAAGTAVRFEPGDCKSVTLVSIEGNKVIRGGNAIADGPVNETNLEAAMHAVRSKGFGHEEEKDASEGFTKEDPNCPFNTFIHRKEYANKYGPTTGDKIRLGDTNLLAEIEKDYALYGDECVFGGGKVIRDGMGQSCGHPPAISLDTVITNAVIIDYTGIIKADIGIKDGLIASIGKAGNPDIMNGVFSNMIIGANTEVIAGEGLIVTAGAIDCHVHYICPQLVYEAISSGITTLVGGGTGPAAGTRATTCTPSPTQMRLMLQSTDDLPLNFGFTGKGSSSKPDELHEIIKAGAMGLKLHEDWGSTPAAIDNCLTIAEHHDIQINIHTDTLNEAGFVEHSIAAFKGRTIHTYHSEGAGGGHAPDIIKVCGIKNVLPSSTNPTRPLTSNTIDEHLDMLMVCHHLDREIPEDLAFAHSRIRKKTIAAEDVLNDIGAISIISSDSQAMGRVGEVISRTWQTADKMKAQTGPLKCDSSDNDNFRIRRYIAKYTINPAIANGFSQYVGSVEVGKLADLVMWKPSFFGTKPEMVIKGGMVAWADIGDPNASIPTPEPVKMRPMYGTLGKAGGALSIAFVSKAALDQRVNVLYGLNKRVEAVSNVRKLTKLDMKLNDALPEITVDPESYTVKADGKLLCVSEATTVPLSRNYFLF

By inhibition is commonly meant how much of the control response was suppressed. On to `COc1ccc(C2c3[nH]c(=O)[nH]c(=O)c3Oc3c2c(=O)oc2ccccc32)cc1` (centres undefined), for which the inhibition in the assay listed under Capra hircus came out at 44%. Besides, the Activity in [1] is 59.1%; in assay [2] it was 54.3%.

In general, MIC refers to the smallest concentration in the dilution series that meets the test's criterion for growth inhibition. As to `CCC1C(C#N)=C(N)Oc2[nH]c(=O)[nH]c(=O)c21` (centres undefined), the MIC in the assay with Candida albicans [3] worked out at 125 µg/mL (≈ 534 µM); in the assay on Aspergillus niger [4] it was 162 µg/mL (≈ 694 µM); in the assay with Aspergillus flavus [5], 150 µg/mL (≈ 640 µM).

Regarding `CCO/C=N/C1=C(C#N)C(c2cccc(OC)c2OC)c2c(n(C)c(=O)n(C)c2=O)O1` (centres undefined), the MIC with Staphylococcus aureus [6] stood at 6.25 µg/mL (≈ 14.7 µM); with Escherichia coli [7], 6.25 µg/mL (≈ 14.7 µM); in the assay with Klebsiella pneumoniae [8], 6.25 µg/mL (≈ 14.7 µM); with Pseudomonas aeruginosa [9], 6.25 µg/mL (≈ 14.7 µM); in the assay on Aspergillus flavus [10] it was 3.12 µg/mL (≈ 7.32 µM); in the assay with Candida albicans [11] it was 6.25 µg/mL (≈ 14.7 µM).

For the compound `COC(=O)C1=C(N)Oc2[nH]c(=S)[nH]c(=O)c2C1c1cccc(Cl)c1` (centres undefined), the zone of inhibition at 1000 µg/mL in the assay with Staphylococcus aureus [12] was 10 mm; with Bacillus cereus, 12 mm; in the assay with Escherichia coli [13] it was 8 mm; in the assay on Klebsiella pneumoniae [14], 11 mm; in the assay with Pseudomonas aeruginosa [15], 9 mm; in the assay on Aspergillus niger [16] it was 12 mm.

With `O=c1[nH]c2c(c(=O)[nH]1)Oc1c(c(=O)oc3ccccc13)C2c1ccccc1Cl` (centres undefined), the inhibition in the assay listed under Capra hircus is 46%. Further, the Activity in assay [1] amounted to 72.4%; in assay [2], 67.2%.

As to `OC(Cn1cncn1)(Cn1cncn1)c1ccc(F)cc1F` [FLUCONAZOLE], the MIC in the assay on Aspergillus flavus [10] and with Candida albicans [11] was 1.56 µg/mL (≈ 5.09 µM) in each case.

Take `COc1ccc(C2c3c(Nc4ccccc4)ncnc3Oc3cc(C)oc(=O)c32)cc1` (centres undefined): the MIC in the assay with Staphylococcus aureus [17] turned out to be 7.8 µg/mL (≈ 18.9 µM).

With `COC(=O)C1=C(N)Oc2[nH]c(=S)[nH]c(=O)c2C1c1ccccc1` (centres undefined), the zone of inhibition at 1000 µg/mL came out at 12 mm in the assay on Staphylococcus aureus [12]; 18 mm with Bacillus cereus; 17 mm with Escherichia coli [13]; 21 mm in the assay with Klebsiella pneumoniae [14]; 19 mm in the assay with Pseudomonas aeruginosa [15]; 12 mm with Aspergillus niger [16].

The pIC50 is the IC50 on a negative log10 scale, so that one unit is a factor of ten. As to `N#CC1=C(N)Oc2[nH]c(=O)[nH]c(=O)c2C1c1ccc(Cl)cc1` (centres undefined), the “diameter of the inhibition zone (DIZ)” value in the assay on Staphylococcus aureus [18] is reported as 18 mm; with Bacillus subtilis, 16 mm; in the assay on Escherichia coli [19] it was 16 mm; in the assay with Salmonella typhimurium it was 20 mm. Also, the figures for the MIC with Candida albicans [3], in the assay on Aspergillus niger [4] and in the assay on Aspergillus flavus [5] were 125 µg/mL (≈ 395 µM), 162 µg/mL (≈ 513 µM) and 150 µg/mL (≈ 474 µM), respectively. For the same compound, the pIC50 on Urease is 4.30.

Regarding `Cc1cc2c(c(=O)o1)C(c1ccc(F)cc1)c1c(Nc3ccccc3)ncnc1O2` (centres undefined), the MIC in the assay with Staphylococcus aureus [17] is 7.8 µg/mL (≈ 19.4 µM).

As to `O=c1[nH]c2c(c(=O)[nH]1)Oc1c(c(=O)oc3ccccc13)C2c1ccc([N+](=O)[O-])cc1` (centres undefined), in the assay filed under Capra hircus, the inhibition was 39%. Further, the Activity in assay [1] was 59.1%; in assay [2], 54.3%.

Consider `CCO/C=N/C1=C(C#N)C(c2ccc(Cl)cc2)c2c(n(C)c(=O)n(C)c2=O)O1` (centres undefined), for which the minimal inhibitory concentration (MIC) in the assay on Staphylococcus aureus [6] is 6.25 µg/mL (≈ 15.6 µM); in the assay on Escherichia coli [7], 6.25 µg/mL (≈ 15.6 µM); in the assay on Klebsiella pneumoniae [8] it was 6.25 µg/mL (≈ 15.6 µM); with Pseudomonas aeruginosa [9] it was 6.25 µg/mL (≈ 15.6 µM); with Aspergillus flavus [10] it was 3.12 µg/mL (≈ 7.78 µM); in the assay with Candida albicans [11] it was 3.12 µg/mL (≈ 7.78 µM).

For `CCO/C=N/C1=C(C#N)C(c2ccccc2F)c2c(n(C)c(=O)n(C)c2=O)O1` (centres undefined), the MIC in the assay with Staphylococcus aureus [6], in the assay on Escherichia coli [7], with Klebsiella pneumoniae [8], in the assay on Pseudomonas aeruginosa [9], in the assay with Aspergillus flavus [10] and in the assay with Candida albicans [11] was 6.25 µg/mL (≈ 16.3 µM) throughout.
